Where a SMILES comes first, the peptide text is derived from it.
| SMILES | logP |
| --- | --- |
| CCOC(=O)c1ccc(N=NN(C)C(=O)OCOC(C)=O)cc1 | 3.44 |
| O=c1c2c(nc3n1CCC3)CCC2 | 0.22 |
| CCCC(=NOCC)C1=C(O)CC(C)(C2CC2)OC1=O (stereo unspecified) | 3.28 |
| CC(C)NCC(O)COc1ccc(Cc2nc(Br)c[nH]2)cc1 (stereo unspecified) | 2.2 |
| Brc1ccc(Br)c(N=C2NCCN2)c1 | 2.71 |
| Cc1ccccc1C1CCc2c(C(=O)N(C)C)cn3c(C)c(C)nc3c2O1 (stereo unspecified) | 3.5 |
| Cc1cccc(C=[N+]([O-])C(C)(C)C)c1 | 1.6 |
| O=C1CN=C(c2ccc(F)cc2)c2ccccc2N1 | 2.38 |
| CCCCNCC(C)O (stereo unspecified) | 1.22 |
| COc1ccccc1N1CCN(CCNCC(O)CON=C(C2CC2)C2CC2)CC1 (stereo unspecified) | 3.21 |
| CCCc1nc(Nc2ccccc2OC)nc(N2CCOCC2)n1 | 3.59 |
| CCOC(=O)CC(C(=O)OC)S(=O)(=O)c1ccc([N+](=O)[O-])cc1 (stereo unspecified) | 1.4 |
| N[C@@H](Cc1c[nH]c2ccccc12)C(=O)N[C@@H](Cc1c[nH]c2ccccc12)C(=O)O (H-Trp-Trp-OH) | -0.27 |
| CCCCCCCNCc1ccc(C)cc1 | 5.12 |
| Cc1oc2cc(C)c3ccc(=O)oc3c2c1C | 3.36 |
| CC(c1ccccc1)N1CC(N2CCOCC2)=NC1=O (stereo unspecified) | 0.8 |
| CCCCN(CCO)CCCC | 2.65 |
| CCOC(=O)NNc1ccccc1 | 1.22 |
| COc1ccc(C2=NC(C)(C(=O)O)CS2)c(O)c1OC (stereo unspecified) | 1.4 |
| OC(CNCCc1ccccc1)CON=C(C1CC1)C1CC1 (stereo unspecified) | 2.44 |
| CCOC(=O)c1cccc2c1CC(c1ccc(OC)cc1)C(OC(C)=O)C(=O)N2CCN(C)C (stereo unspecified) | 4.2 |

| SMILES | logP |
| --- | --- |
| COc1cc2ncnc(Nc3cccc(I)c3)c2cc1OC | 3.65 |
| c1ccc(Cn2cccn2)cc1 | 1.78 |
| Cc1nc2c3c(c(C(=O)N(C)C)cn2c1CO)CCC(c1ccccc1)O3 (stereo unspecified) | 1.72 |
| CNC(=O)Oc1ccc2c(c1)CC(c1ccc(OC)cc1)C(OC(C)=O)C(=O)N2CCN(C)C (stereo unspecified) | 2.31 |
| COC(=O)C(C)NP(=O)(OCC1C=CC(n2cc(C)c(=O)[nH]c2=O)O1)Oc1ccccc1 (stereo unspecified) | 1.04 |
| O=C(O)CCCCON=C(c1cccc(C(F)(F)F)c1)c1cnccn1 | 3.26 |
| COc1cc(OC)nc(Oc2cccc(Cl)c2C(=O)O)n1 | 2.23 |
| COc1cc(OC)c2c(c1)OC(c1ccc(OC)c(OC)c1)C(OC)C2 (stereo unspecified) | 3.68 |
| COc1cc2ncnc(Nc3cccc(Cl)c3)c2cc1OC | 3.51 |
| COc1cccc(C2CCCCC2=O)c1 (stereo unspecified) | 2.42 |
| CN1COCc2c1ccc1cc3ccc(N)c(CO)c3nc21 | 1.64 |
| O=C1CC=C2C3CC4N(CCC45c4ccccc4N1C25)C/C3=C\CO (stereo unspecified) | 1.37 |
| CC(C)C(N)C(=O)NCC(=O)NC(Cc1ccccc1)C(=O)NC(C(=O)NC(Cc1ccccc1)C(=O)O)C(C)C (stereo unspecified) (H-VGFVF-OH; configuration not given here) | -0.5 |
| CNc1ccc2cc3ccc4c(c3nc2c1CO)COCN4S(C)(=O)=O | 1.2 |
| COC1CC(OC2C(O)CC(OC3CCC4(C)C(CCC5C4CCC4(C)C(C6=CC(=O)OC6)CCC54O)C3)OC2C)OC(C)C1OC1CC(O)C(O)C(C)O1 (stereo unspecified) | 3.11 |
| CC(C)c1cccc(C(C)C)c1NC(=O)CC(=O)c1ccccc1 | 2.87 |
| CC(C(=O)O)c1ccc(OCc2ccccc2)c(F)c1 (stereo unspecified) | 3.61 |
| Cc1[nH]cnc1CSCCNC1=C([N+](=O)[O-])CCN1 | -0.87 |
| O=C(Cn1ncc([N+](=O)[O-])n1)NCCO | -0.82 |
| CCCOc1cccc(CNc2[nH]cnc3ncnc2-3)c1 | 3.12 |
| CC(C)CC(N)C(=O)N1CCCC1C(=O)O (stereo not drawn) (H-Leu-Pro-OH; configuration not given here) | -1.76 |

| SMILES | logP |
| --- | --- |
| CCOC(=O)C1=C(C)NC(C)=C(C(=O)OC)C1c1ccc(OC)c(OC)c1 (stereo unspecified) | 3.6 |
| Brc1cc(Br)c(-c2ccccc2)c(Br)c1 | 6.03 |
| COC(=O)Cn1c(C)nc2ccccc2c1=O | 1.46 |
| Cc1cccc(C)c1CCc1cnc[nH]1 | 2.91 |
| CN(c1ccc2cc3ccc4c(c3nc2c1)COCN4)S(C)(=O)=O | 1.54 |
| O=c1nc(Nc2ccccc2)[nH]c2c1ncn2CCCCO | 1.26 |
| CCNC1CCc2c(OC)cccc2C1C (stereo unspecified) | 2.67 |
| CC(C)CC(NC(=O)C(CC(C)C)NC(=O)C1CCCN1)C(=O)O (stereo not drawn) (H-Pro-Leu-Leu-OH; configuration not given here) | -1.64 |
| CC(=O)OCc1ccccn1 | 0.39 |
| Cc1ccc(S(=O)(=O)C2(C(=O)OC(C)C)CCCCC2)cc1 | 3.21 |
| COc1ccc(CCNCC(O)COc2ccc(-c3nc(CN4CCOCC4)c[nH]3)cc2)cc1OC (stereo unspecified) | 2.4 |
| CCOc1cccc(CNc2[nH]cnc3ncnc2-3)c1 | 2.57 |
| Cc1coc2nc3oc(=O)cc(C)c3cc12 | 1.64 |
| C=CC(=O)Oc1ccccc1 | 1.94 |
| Nc1nnnn1-c1cccc2ccccc12 | 1.72 |
| CN(C)CCOC(=O)c1ccc(C(C)(C)C)cc1 | 3.94 |
| CC(C)C(N)C(=O)NC(C(=O)O)C(C)C (stereo not drawn) (H-Val-Val-OH; configuration not given here) | -2.82 |
| Brc1c2ccccc2c(Br)c2ccccc12 | 6.29 |
| CC(C)=CC1C(C(=O)OCc2cccc(S(C)(=O)=O)c2)C1(C)C (stereo unspecified) | 3.83 |

— the OPERA property sets (Mansouri et al. 2018)
